Patent US11352395B2, “Anticancer peptides” (IDP DISCOVERY PHARMA, S.L., priority 2017, dated 2022)
Like-named read-outs stand apart in the source and are kept apart here. *1 amine or outer side, *2 acyl side, *3 side chain or, on linkers, in order; H or OH if unused. Where a SMILES comes first, the peptide text is derived from it. Bridges are numbered along the chain shown (N, C = ends). Where no end group is shown, it is not given here. [ ]: non-standard residue; d: D form. ξ: configuration not given here. ξαMeNle(6-ylidene) = CC(CCCC=[*:3])(N[*:1])C(=O)[*:2]; X1 = CC(CCCCCCC=[*:3])(N[*:1])C(=O)[*:2]

Columns and labels:
[1] = system: RG6, epithelial (glioblastoma, GMB); assay type: cell-based, human
Source text: (§1) [drawing 12] a L birradical corresponding to —(CH2)3—CH═CH—(CH2)3— (for the case of NS02) or —(CH2)6—CH═CH—(CH2)3— (for the cases NS10, NS16 and Na05) links both Xs radicals in each sequence, and CPP2 corresponds to penetratine peptide. Cell Lines: NCI-H524, lung (small cell lung cancer, SCLC), ATCC-CRL-5831 RG1, epithelial (glioblastoma, GMB), from surgical specimens from patients GMB-27, epithelial (glioblastoma, GMB), from surgical specimens from patients 12O15, epithelial (glioblastoma, GMB), from surgical specimens from patients 12O53, epithelial (glioblastoma, GMB), from surgical specimens from patients 12O89, epithelial (glioblastoma, GMB), from surgical specimens from patients RG6, epithelial (glioblastoma, GMB), from surgical specimens from patients RG4, epithelial (glioblastoma, GMB), from surgical specimens from patients RG5, epithelial (glioblastoma, GMB), from surgical specimens from patients Cell Culture
(§2) Cell lines NCI-H524 were cultured in incubator at 37° C. in RPMI-1640 (Sigma R8758) medium with 10% of fetal bovine serum inactivated (FBS) and 2 mM glutamine (Sigma G7513). Cell line RG1, RG4, RG5, RG6, 12015, 12089 and GBM-27 were cultured in incubator under CO2 (6%) at 37° C. in complete medium (Neurobasal+B27+Glutamax+Growth factors).
(§3) During the amplification step and the assays adherent cells were rinsed with DPBS (Dulbecco's Phosphate Buffered Saline, Sigma D1283) three times and afterward treated for 5 minutes with trypsin ([0.5 g/ml]/EDTA [0.2 g/ml]) (Gibco-BRL, 15400054) in solution of DPBS at 37° C., and, once detached, transferred in the culturing medium. No-adherent cells were dissociated with Accumax, centrifuged and transferred in the culturing medium. Cells were counted in a Neubauer chamber after labelling with Tripan-Blue.
(§4) NCI-H524 were seeded at a density of 2500 cells/well in 96 well plates; RG1, RG4, RG5, RG6, 12015, 12089 and GBM-27 were dissociated with Accumax and plate on p96 wells covered with Matrigel. After 24 h, the compounds to be tested were added to calculate the dose/response curve at the starting concentration of 100 μM with serial dilutions (1:1). Controls are the untreated cells. Each experiment was performed in triplicate.
(§5) Cells were incubated during 72-96 h in incubator under CO2 atmosphere at 37° C. Cell viability was measured by means of Alamar Blue® (Biosource DAL1100) and CYTELL™, after treatment with Propidium iodide and Hoechst (GE Healthcare), following manufacturer instructions.
(§6) Alamar Blue: 10 μl Alamar Blue solution was added to each well and the plates were incubated for […] in the incubator. Fluorescence ratio at 535/590 (excitation/emission) was measured in Cytofluor (Millipore) fluorimeter. Blank control was determined by lysis of untreated cells with con 2% of Triton X100, right before adding Alamar Blue solution.
(§7) CYTELL™: 10 μl of propidium iodide and/or Hoechst solution was added to each well and the plates were incubated for 10 minutes protected by light. Control samples were represented by untreated cells and cell treated with 100% DMSO. Fluorescent stained cells which corresponds to death cells were detected by Cytell Imaging System and their amount calculated. % Viability=Number of non-blue cells×100/Number of total cells Statistics
(§8) Data analysis was performed calculating the percentage of cell viability normalized vs. the values of negative control, which was considered equal to 100%. The dose/response curve was fitted through the sigmoidal equation dose-response (variable slope) and the EC50 values were calculated as follow: Y=Bottom+(Top−Bottom)/(1+10^{[(Log EC50−X)*HillSlope]}, where: X is compound concentration (log scale) and Y is the response

[2] = system: RG4, epithelial (glioblastoma, GMB); assay type: cell-based, human
Source text: as §1, §2, §3, §4, §5, §6, §7, §8

[3] = system: 12O89, epithelial (glioblastoma, GMB); assay type: cell-based, human
Source text: as §1, §2, §3, §4, §5, §6, §7, §8

[4] = system: RG5, epithelial (glioblastoma, GMB); assay type: cell-based, human
Source text: as §1, §2, §3, §4, §5, §6, §7, §8

[5] = system: GBM27 (GMB-27), epithelial (glioblastoma); assay type: cell-based, human
Source text: as §1, §2, §3, §4, §5, §6, §7, §8

[6] = system: 12O15, epithelial (glioblastoma, GMB); assay type: cell-based, human
Source text: as §1, §2, §3, §4, §5, §6, §7, §8

[7] = system: 12O53, epithelial (glioblastoma, GMB); assay type: cell-based, human
Source text: [drawing 12] a L birradical corresponding to -(CH2)3-CH═CH-(CH2)3- (for the case of NS02) or -(CH2)6-CH═CH-(CH2)3- (for the cases NS10, NS16 and Na05) links both Xs radicals in each sequence, and CPP2 corresponds to penetratine peptide. Cell Lines: NCI-H524, lung (small cell lung cancer, SCLC), ATCC-CRL-5831 RG1, epithelial (glioblastoma, GMB), from surgical specimens from patients GMB-27, epithelial (glioblastoma, GMB), from surgical specimens from patients 12O15, epithelial (glioblastoma, GMB), from surgical specimens from patients 12O53, epithelial (glioblastoma, GMB), from surgical specimens from patients 12O89, epithelial (glioblastoma, GMB), from surgical specimens from patients RG6, epithelial (glioblastoma, GMB), from surgical specimens from patients RG4, epithelial (glioblastoma, GMB), from surgical specimens from patients RG5, epithelial (glioblastoma, GMB), from surgical specimens from patients Cell Culture During the amplification step and the assays adherent cells were rinsed with DPBS (Dulbecco's Phosphate Buffered Saline, Sigma D1283) three times and afterward treated for 5 minutes with trypsin ([0.5 g/ml]/EDTA [0.2 g/ml]) (Gibco-BRL, 15400054) in solution of DPBS at 37° C., and, once detached, transferred in the culturing medium. No-adherent cells were dissociated with Accumax, centrifuged and transferred in the culturing medium. Cells were counted in a Neubauer chamber after labelling with Tripan-Blue. […] NCI-H524 were seeded at a density of 2500 cells/well in 96 well plates; […]6, 12015, 12089 and GBM-27 were dissociated with Accumax and plate on p96 wells covered with Matrigel. After 24 h, the compounds to be tested were added to calculate the dose/response curve at the starting concentration of 100 μM with serial dilutions (1:1). Controls are the untreated cells. Each experiment was performed in triplicate. Cells were incubated during 72-96 h in incubator under CO2 atmosphere at 37° C. Cell viability was measured by means of Alamar Blue® (Biosource DAL1100) and […], after treatment with Propidium iodide and Hoechst (GE Healthcare), following manufacturer instructions. Alamar Blue: 10 μl Alamar Blue solution was added to each well and the plates were incubated for […] in the incubator. Fluorescence ratio at 535/590 (excitation/emission) was measured in Cytofluor (Millipore) fluorimeter. Blank control was determined by lysis of untreated cells with con 2% of Triton X100, right before adding Alamar Blue solution. […] of propidium iodide and/or Hoechst solution was added to each well and the plates were incubated for 10 minutes protected by light. Control samples were represented by untreated cells and cell treated with 100% DMSO. Fluorescent stained cells which corresponds to death cells were detected by Cytell Imaging System and their amount calculated. % Viability=Number of non-blue cells×100/Number of total cells Statistics Data analysis was performed calculating the percentage of cell viability normalized vs. the values of negative control, which was considered equal to 100%. The dose/response curve was fitted through the sigmoidal equation dose-response (variable slope) and the EC50 values were calculated as follow: Y=Bottom+(Top-Bottom)/(1+10^{[(Log EC50-X)*HillSlope]}, where: X is compound concentration (log scale) and Y is the response

[8] = system: RG1, epithelial (glioblastoma, GMB)
Description: Alamar Blue: 10 μl Alamar Blue solution was added to each well and the plates were incubated for 4 in the incubator. Fluorescence ratio at 535/590 (excitation/emission) was measured in Cytofluor (Millipore) fluorimeter. Blank control was determined by lysis of untreated cells with con 2% of Triton X100, right before adding Alamar Blue solution.

[9] = system: tumor cell lines; experiment: Anti-cancer activity in tumor cell lines (summary statements); assay type: cell-based
Description: NCI-H524 were seeded at a density of 2500 cells/well in 96 well plates; […]6, 12015, 12089 and GBM-27 were dissociated with Accumax and plate on p96 wells covered with Matrigel. After 24 h, the compounds to be tested were added to calculate the dose/response curve at the starting concentration of 100 μM with serial dilutions (1:1). Controls are the untreated cells. Each experiment was performed in triplicate. Cells were incubated during 72-96 h in incubator under CO2 atmosphere at 37° C. Cell viability was measured by means of Alamar Blue® (Biosource DAL1100) and […], after treatment with Propidium iodide and Hoechst (GE Healthcare), following manufacturer instructions. Data analysis was performed calculating the percentage of cell viability normalized vs. the values of negative control, which was considered equal to 100%. The dose/response curve was fitted through the sigmoidal equation dose-response (variable slope) and the EC50 values were calculated as follow: Y=Bottom+(Top-Bottom)/(1+10^{[(Log EC50-X)*HillSlope]}, where: X is compound concentration (log scale) and Y is the response

[10] = system: NCI-H524, lung (small cell lung cancer, SCLC)
Source text: Cell Lines: NCI-H524, lung (small cell lung cancer, SCLC), ATCC-CRL-5831 RG1, epithelial (glioblastoma, GMB), from surgical specimens from patients GMB-27, epithelial (glioblastoma, GMB), from surgical specimens from patients 12O15, epithelial (glioblastoma, GMB), from surgical specimens from patients 12O53, epithelial (glioblastoma, GMB), from surgical specimens from patients 12O89, epithelial (glioblastoma, GMB), from surgical specimens from patients RG6, epithelial (glioblastoma, GMB), from surgical specimens from patients RG4, epithelial (glioblastoma, GMB), from surgical specimens from patients RG5, epithelial (glioblastoma, GMB), from surgical specimens from patients Cell Culture […]
During the amplification step and the assays adherent cells were rinsed with DPBS (Dulbecco's Phosphate Buffered Saline, Sigma D1283) three times and afterward treated for 5 minutes with trypsin ([0.5 g/ml]/EDTA [0.2 g/ml]) (Gibco-BRL, 15400054) in solution of DPBS at 37° C., and, once detached, transferred in the culturing medium. […] Cells were counted in a Neubauer chamber after labelling with Tripan-Blue. […]
Cells were incubated during 72-96 h in incubator under CO2 atmosphere at 37° C. Cell viability was measured by means of Alamar Blue® (Biosource DAL1100) and CYTELL™, after treatment with Propidium iodide and Hoechst (GE Healthcare), following manufacturer instructions. […]

Row | Compound | EC50 [7] [µM] | EC50 [8] [µM] | also measured
1 | CC[C@H](C)[C@@H]1NC(=O)[C@H](C(C)C)NC(=O)[C@H](C(C)C)NC(=O)C(C)(NC(=O)[C@H](C)NC(=O)[C@H](C)N)CCCCCCC=CCCCC(C)(C(=O)N[C@H](C(=O)N[C@@H](CCC(=O)O)C(=O)N[C@@H](Cc2ccc(O)cc2)C(=O)N[C@H](C(=O)N[C@@H](Cc2c[nH]cn2)C(=O)N[C@@H](CO)C(N)=O)C(C)C)[C@@H](C)O)NC(=O)[C@H](CCCCN)NC(=O)[C@H](CCCCN)NC(=O)[C@H](CC(C)C)NC1=O (stereo partly shown) [IDP-NS10] (H-AA[X1]VVILKK[ξαMeNle(6-ylidene)]TEYVHS-NH2; staple 3-10; N-terminus and C-terminus assumed) | ~50 | ~7 | EC50 [1]: ~5 µM; EC50 [2]: ~5 µM; EC50 [3]: ~4 µM; EC50 [4]: ~7 µM; EC50 [5]: ~7.5 µM; EC50 [6]: ~10 µM
2 | CC(C)C[C@@H]1NC(=O)[C@H](Cc2ccccc2)NC(=O)[C@H](CO)NC(=O)[C@H](CO)NC(=O)C(C)(NC(=O)[C@H](CC(C)C)NC(=O)[C@H](CC(=O)O)NC(=O)[C@H](CC(N)=O)NC(=O)[C@H](CCCNC(=N)N)NC(=O)[C@H](CCCNC(=N)N)NC(=O)[C@H](CCC(N)=O)NC(=O)[C@@H](N)CCCNC(=N)N)CCCCCCC=CCCCC(C)(C(=O)N[C@@H](CC(=O)O)C(=O)N[C@@H](Cc2c[nH]cn2)C(N)=O)NC(=O)[C@H](CC(C)C)NC(=O)[C@H]([C@@H](C)O)NC1=O (stereo partly shown) [IDP-NS16] (H-RQRRNDL[X1]SSFLTL[ξαMeNle(6-ylidene)]DH-NH2; staple 8-15; N-terminus and C-terminus assumed) | ~10 | ~15 | –
3 | CC(C)C[C@H](NC(=O)[C@H](CC(=O)O)NC(=O)[C@H](CC(N)=O)NC(=O)[C@H](CCCNC(=N)N)NC(=O)[C@@H](N)CCCNC(=N)N)C(=O)N[C@@H](CCCNC(=N)N)C(=O)N[C@@H](CO)C(=O)NC1(C)CCCCCCC=CCCCC(C)(C(=O)N[C@H](C(=O)N2CCC[C@H]2C(N)=O)C(C)C)NC(=O)[C@H](CC(=O)O)NC(=O)[C@H](CCCNC(=N)N)NC(=O)[C@H](CC(C)C)NC(=O)[C@H]([C@@H](C)O)NC(=O)[C@H](CC(C)C)NC(=O)[C@H](Cc2ccccc2)NC1=O (stereo partly shown) [Na05] (H-RRNDLRS[X1]FLTLRD[ξαMeNle(6-ylidene)]VP-NH2; staple 8-15; N-terminus and C-terminus assumed) | – | ~10 | –
4 | RQIKIWFQNRRMKWKKRQRRNDLRSSFLTLRDHVP-NH2 [NLCa02] | – | – | anti-cancer activity (in words) ([9]; tumor cell lines): anti-cancer activity; EC50 ([8]; RG1 cell line, 72-96 h incubation): ~5 µM
5 | CC(C)C[C@H](NC(=O)[C@H](Cc1ccccc1)NC(=O)C1(C)CCCC=CCCCC(C)(NC(=O)[C@H](CC(N)=O)NC(=O)[C@H](CCCNC(=N)N)NC(=O)[C@H](CCCNC(=N)N)NC(=O)[C@H](CCC(N)=O)NC(=O)[C@@H](N)CCCNC(=N)N)C(=O)N[C@@H](CC(C)C)C(=O)N[C@@H](CCCNC(=N)N)C(=O)N[C@@H](CO)C(=O)N1)C(=O)N[C@H](C(=O)N[C@@H](CC(C)C)C(=O)N[C@@H](CCCNC(=N)N)C(=O)N[C@@H](CC(=O)O)C(=O)N[C@@H](Cc1c[nH]cn1)C(N)=O)[C@@H](C)O (stereo partly shown) [IDP-NS02] (H-RQRRN[ξαMeNle(6-ylidene)]LRS[ξαMeNle(6-ylidene)]FLTLRDH-NH2; staple 6-10; N-terminus and C-terminus assumed) | > 100 | > 100 | EC50 [10]: ~5 µM
6 | RRRRRRRAAKVVILKKATEYVHS-NH2 (C-terminus assumed) [IDP-intwtLN10, reference compound] | > 100 | > 100 | inhibiting cancer cell proliferation (in words) [9]: inactive
7 | AAKVVILKKATEYVHS-NH2 (C-terminus assumed) [IDP-wtLN10, reference compound] | > 100 | > 100 | inhibiting cancer cell proliferation (in words) [9]: not effective
